Source: the NIST ThermoML archive (doi:10.1021/acs.jced.7b00321)
Numbers after ± are expanded uncertainties.

Test: xn = mol fraction of the nth substance listed
Details: 101 kPa, Liquid; for viscosity: Capillary tube (Ostwald / Ubbelohde) method; for mass density: Vibrating tube method

CC(O)CN (stereo not drawn) [1-amino-2-propanol] + CCO
Details	mass density, 293.15 K [kg/m3]	mass density, 303.15 K [kg/m3]	mass density, 313.15 K [kg/m3]	mass density, 323.15 K [kg/m3]	viscosity, 293.15 K [mPa·s]	viscosity, 303.15 K [mPa·s]	viscosity, 313.15 K [mPa·s]	viscosity, 323.15 K [mPa·s]
x1 = 0.1009	815.54 ± 2.1	807.78 ± 2.2	798.04 ± 2.2	790.57 ± 2	1.69 ± 0.05	1.35 ± 0.03	1.1 ± 0.03	0.9 ± 0.02
x1 = 0.2	839.35 ± 2	830.91 ± 2.3	821.03 ± 2.2	813.16 ± 2.2	2.38 ± 0.06	1.83 ± 0.05	1.45 ± 0.03	1.16 ± 0.03
x1 = 0.3015	860.99 ± 2.1	852.05 ± 2.3	842.37 ± 2.2	834.09 ± 2.2	3.39 ± 0.09	2.51 ± 0.06	1.91 ± 0.05	1.49 ± 0.03
x1 = 0.3999	879.64 ± 2.1	870.63 ± 2.2	860.91 ± 2.2	852.56 ± 2.2	4.74 ± 0.12	3.38 ± 0.08	2.49 ± 0.06	1.89 ± 0.04
x1 = 0.4999	896.77 ± 2.1	887.58 ± 2.2	878.08 ± 2.2	869.65 ± 2.1	6.61 ± 0.16	4.53 ± 0.11	3.23 ± 0.08	2.39 ± 0.06
x1 = 0.5992	912.21 ± 2.1	903.08 ± 2.2	893.58 ± 2.1	885.11 ± 2.1	9.15 ± 0.23	6.04 ± 0.15	4.17 ± 0.1	3.01 ± 0.07
x1 = 0.6996	926.22 ± 2.1	917.08 ± 2.2	907.84 ± 2.1	899.63 ± 2.1	12.64 ± 0.31	8.01 ± 0.19	5.35 ± 0.13	3.76 ± 0.09
x1 = 0.7998	938.83 ± 2.1	929.86 ± 2.1	921.21 ± 2	912.9 ± 2.1	17.3 ± 0.43	10.53 ± 0.25	6.84 ± 0.16	4.7 ± 0.11
x1 = 0.8995	950.36 ± 2.1	941.55 ± 2	933.29 ± 2	924.97 ± 2	23.42 ± 0.56	13.8 ± 0.35	8.64 ± 0.21	5.75 ± 0.13

NCCCO [3-amino-1-propanol] + CCO
Details	mass density, 293.15 K [kg/m3]	mass density, 303.15 K [kg/m3]	mass density, 313.15 K [kg/m3]	mass density, 323.15 K [kg/m3]	viscosity, 293.15 K [mPa·s]	viscosity, 303.15 K [mPa·s]	viscosity, 313.15 K [mPa·s]	viscosity, 323.15 K [mPa·s]
x1 = 0.101	820.04 ± 2.1	812.33 ± 2.3	802.78 ± 2.3	795.11 ± 2.1	1.77 ± 0.05	1.41 ± 0.04	1.18 ± 0.03	0.97 ± 0.03
x1 = 0.2008	847.98 ± 2	839.91 ± 2.3	830.23 ± 2.3	822.21 ± 2.3	2.7 ± 0.07	2.05 ± 0.05	1.63 ± 0.04	1.32 ± 0.03
x1 = 0.3001	871.99 ± 2	863.77 ± 2.2	854.17 ± 2.2	846.08 ± 2.2	4.06 ± 0.11	2.97 ± 0.08	2.29 ± 0.06	1.79 ± 0.04
x1 = 0.4006	894.28 ± 2	885.95 ± 2.2	876.32 ± 2.2	867.97 ± 2.2	6.22 ± 0.17	4.43 ± 0.11	3.25 ± 0.08	2.49 ± 0.06
x1 = 0.4999	914.13 ± 2	905.74 ± 2.2	896.28 ± 2.2	887.91 ± 2.2	9.34 ± 0.25	6.31 ± 0.16	4.53 ± 0.11	3.33 ± 0.08
x1 = 0.5994	932.46 ± 2	923.63 ± 2.2	914.45 ± 2.1	906.05 ± 2.2	13.88 ± 0.36	8.89 ± 0.22	6.17 ± 0.15	4.35 ± 0.1
x1 = 0.6993	948.72 ± 2	940.08 ± 2.1	931.32 ± 2.1	922.79 ± 2.2	19.55 ± 0.48	12.09 ± 0.29	8.08 ± 0.19	5.52 ± 0.13
x1 = 0.7999	963.35 ± 2	954.73 ± 2	946.49 ± 2	938.29 ± 2.1	26.29 ± 0.62	15.91 ± 0.38	10.18 ± 0.24	6.82 ± 0.16
x1 = 0.8998	975.98 ± 2	967.76 ± 2	959.83 ± 2	951.35 ± 2	32.9 ± 0.75	19.96 ± 0.49	12.86 ± 0.31	8.29 ± 0.19

NCCNCCO [N-(2-aminoethyl)ethanolamine] + CCO
Details	mass density, 293.15 K [kg/m3]	mass density, 303.15 K [kg/m3]	mass density, 313.15 K [kg/m3]	mass density, 323.15 K [kg/m3]	viscosity, 293.15 K [mPa·s]	viscosity, 303.15 K [mPa·s]	viscosity, 313.15 K [mPa·s]	viscosity, 323.15 K [mPa·s]
x1 = 0.1003	836.01 ± 2.5	827.72 ± 2.6	817.72 ± 2.5	810.06 ± 2.4	2.27 ± 0.09	1.78 ± 0.06	1.41 ± 0.05	1.13 ± 0.04
x1 = 0.2	876.03 ± 2.3	866.47 ± 2.6	856.04 ± 2.5	847.84 ± 2.7	4.21 ± 0.15	3.09 ± 0.1	2.35 ± 0.07	1.79 ± 0.05
x1 = 0.3	908.63 ± 2.3	898.53 ± 2.6	888.11 ± 2.4	880.03 ± 2.5	8.22 ± 0.27	5.37 ± 0.17	3.76 ± 0.11	2.74 ± 0.08
x1 = 0.4	935.65 ± 2.3	925.07 ± 2.5	915.04 ± 2.3	906.65 ± 2.4	14.62 ± 0.44	9.08 ± 0.26	6.08 ± 0.17	4.22 ± 0.11
x1 = 0.4997	957.92 ± 2.3	947.38 ± 2.4	937.71 ± 2.2	929.72 ± 2.3	24.18 ± 0.68	14.41 ± 0.39	9.37 ± 0.25	6.19 ± 0.16
x1 = 0.5996	976.58 ± 2.2	966.68 ± 2.3	957.44 ± 2.1	949.14 ± 2.2	36.92 ± 1	21.51 ± 0.57	13.45 ± 0.34	8.75 ± 0.22
x1 = 0.6992	992.84 ± 2.1	983.3 ± 2.2	974.42 ± 2.1	966.36 ± 2.1	55.46 ± 1.4	31.16 ± 0.79	18.74 ± 0.45	11.65 ± 0.28
x1 = 0.7994	1007.09 ± 2	997.81 ± 2.1	989.49 ± 2	981.48 ± 2.1	78.97 ± 2	42.47 ± 1.1	24.16 ± 0.58	14.94 ± 0.35
x1 = 0.9007	1019.25 ± 2.1	1010.53 ± 2	1002.88 ± 1.9	995.08 ± 1.9	107.09 ± 2.8	56.14 ± 1.5	31.76 ± 0.82	18.8 ± 0.44

NCCNCCN [di(2-aminoethyl)amine] + CCO
Details	mass density, 293.15 K [kg/m3]	mass density, 303.15 K [kg/m3]	mass density, 313.15 K [kg/m3]	mass density, 323.15 K [kg/m3]	viscosity, 293.15 K [mPa·s]	viscosity, 303.15 K [mPa·s]	viscosity, 313.15 K [mPa·s]	viscosity, 323.15 K [mPa·s]
x1 = 0.1	831.18 ± 2.6	820.88 ± 2.7	809.43 ± 2.5	800.56 ± 2.3	2.38 ± 0.06	1.82 ± 0.05	1.43 ± 0.04	1.16 ± 0.03
x1 = 0.1999	864.18 ± 2.4	852.13 ± 2.9	839.06 ± 2.8	828.38 ± 2.9	3.4 ± 0.08	2.52 ± 0.06	1.95 ± 0.04	1.54 ± 0.04
x1 = 0.3001	888.74 ± 2.6	875.32 ± 2.9	862.26 ± 2.9	849.95 ± 3	4.31 ± 0.1	3.11 ± 0.07	2.33 ± 0.05	1.81 ± 0.04
x1 = 0.4	905.98 ± 2.7	892.48 ± 2.9	879.84 ± 2.8	866.96 ± 3	5.06 ± 0.11	3.57 ± 0.08	2.64 ± 0.06	2.03 ± 0.04
x1 = 0.4998	918.77 ± 2.7	905.55 ± 2.8	893.25 ± 2.7	881.28 ± 2.8	5.59 ± 0.12	3.93 ± 0.08	2.89 ± 0.06	2.2 ± 0.05
x1 = 0.6001	928.75 ± 2.7	915.84 ± 2.6	904.57 ± 2.5	892.92 ± 2.7	6.05 ± 0.13	4.19 ± 0.09	3.06 ± 0.07	2.31 ± 0.05
x1 = 0.6992	936.55 ± 2.5	924.86 ± 2.5	913.73 ± 2.4	903.03 ± 2.5	6.39 ± 0.14	4.38 ± 0.09	3.15 ± 0.07	2.37 ± 0.05
x1 = 0.7998	943.08 ± 2.4	931.95 ± 2.4	921.49 ± 2.3	911.41 ± 2.3	6.61 ± 0.14	4.53 ± 0.1	3.26 ± 0.07	2.45 ± 0.05
x1 = 0.9007	948.15 ± 2.3	937.76 ± 2.2	928.32 ± 2.2	918.94 ± 2.1	6.8 ± 0.14	4.65 ± 0.1	3.31 ± 0.07	2.5 ± 0.05
